Source: ChEMBL document CHEMBL1139575, “Discovery and synthesis of a novel and selective drug-like P2X(1) antagonist” (Bioorg Med Chem Lett, 2005)

Experiments:
P2X purinoceptor 3 = target: T1, P2X purinoceptor 3 (Homo sapiens, UniProt P56373); experiment: Inhibitory concentration against human P2X purinoceptor 3 (hP2X3) expressed in CHO-K1 cells; type: functional, cell-based
T1 sequence (P56373 whole entry): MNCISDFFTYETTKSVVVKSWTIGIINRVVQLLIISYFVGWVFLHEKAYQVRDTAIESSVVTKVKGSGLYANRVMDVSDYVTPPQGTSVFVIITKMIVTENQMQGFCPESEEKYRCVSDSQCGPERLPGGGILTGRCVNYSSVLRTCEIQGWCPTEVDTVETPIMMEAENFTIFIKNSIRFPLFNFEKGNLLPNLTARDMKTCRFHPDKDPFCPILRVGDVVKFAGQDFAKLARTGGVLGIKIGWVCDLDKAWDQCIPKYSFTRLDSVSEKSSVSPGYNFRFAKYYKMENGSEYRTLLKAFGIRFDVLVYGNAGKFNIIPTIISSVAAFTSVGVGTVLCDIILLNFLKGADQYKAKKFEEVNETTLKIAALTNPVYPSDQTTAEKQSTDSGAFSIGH

P2X purinoceptor 2 = target: T2, P2X purinoceptor 2 (Homo sapiens, UniProt Q9UBL9); experiment: Inhibitory concentration against human P2X purinoceptor 2 (hP2X2) expressed in 1321N1 astrocytoma cells; type: functional, cell-based
T2 sequence (Q9UBL9 whole entry): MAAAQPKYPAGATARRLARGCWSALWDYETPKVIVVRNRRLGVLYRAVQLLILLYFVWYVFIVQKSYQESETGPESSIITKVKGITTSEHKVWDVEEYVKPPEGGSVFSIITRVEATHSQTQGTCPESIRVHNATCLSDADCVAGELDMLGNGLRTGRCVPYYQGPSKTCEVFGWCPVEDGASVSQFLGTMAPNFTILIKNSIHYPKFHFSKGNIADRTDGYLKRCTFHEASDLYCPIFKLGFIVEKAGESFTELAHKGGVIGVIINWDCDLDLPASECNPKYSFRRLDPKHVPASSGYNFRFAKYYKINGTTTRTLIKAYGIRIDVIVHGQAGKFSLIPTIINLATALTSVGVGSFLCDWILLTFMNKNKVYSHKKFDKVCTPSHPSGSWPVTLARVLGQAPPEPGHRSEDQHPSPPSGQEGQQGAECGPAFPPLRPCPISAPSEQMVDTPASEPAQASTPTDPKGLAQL

P2X purinoceptor 1 = target: T3, P2X purinoceptor 1 (Homo sapiens, UniProt P51575); experiment: Inhibitory concentration against human P2X purinoceptor 1 (hP2X1) expressed in CHO-K1 cells; type: functional, cell-based
T3 sequence (P51575 whole entry): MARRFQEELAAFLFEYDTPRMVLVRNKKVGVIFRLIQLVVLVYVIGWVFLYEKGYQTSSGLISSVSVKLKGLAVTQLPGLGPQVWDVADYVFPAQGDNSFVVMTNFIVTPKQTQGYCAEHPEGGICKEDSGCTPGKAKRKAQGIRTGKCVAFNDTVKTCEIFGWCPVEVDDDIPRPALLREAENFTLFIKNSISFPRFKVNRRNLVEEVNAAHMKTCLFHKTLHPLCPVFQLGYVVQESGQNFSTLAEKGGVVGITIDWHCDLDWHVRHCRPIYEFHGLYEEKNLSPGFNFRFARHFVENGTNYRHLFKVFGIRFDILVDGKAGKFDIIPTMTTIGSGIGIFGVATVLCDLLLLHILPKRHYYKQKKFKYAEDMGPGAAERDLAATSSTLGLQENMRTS

[1] = Inhibitory concentration against P2X purinoceptor 2/3 expressed in 1321N1 astrocytoma cells; type: functional, cell-based, Homo sapiens

IC50 (P2X purinoceptor 3): > 100 µM
IC50 (P2X purinoceptor 2): > 100 µM
IC50 (P2X purinoceptor 1): 3 µM
IC50 [1]: > 100 µM
Compound: O=C(N[C@H](Cc1cscn1)C(=O)N[C@@H](CC1CCCCC1)[C@@H](O)[C@@H](O)C1CC1)c1nc2ccccc2[nH]1
